Source: patent publication US6127519A, “Calcitonin derivatives” (Tsumura & Co., priority 1990, dated 2000)
Bridge positions count the residues as written; N and C are the ends. Peptide text beside a SMILES is read from it.

System: calcium concentration in the serum
Assay: Test 1: reduction of calcium level in serum after tail vein administration to rats
Format: in vivo, rats of the Wistar strain
Details: 1 ml/kg tail vein, female Wistar rats
Description: Six-weeks-old female rats of the Wistar strain (each group consisting of 4 rats) were used as the test animal, and the peptides of the present invention obtained in the examples given hereinafter were tested at concentrations adjusted with a 1% aqueous solution of sodium acetate (pH 4,0) to which 0.1% bovine serum albumin (BSA) was added. The solution was adjusted to a concentration of 166 μg/ml 830 ng/ml or 83 ng/ml and administered with the tail vein in an amount of 1 ml/kg. The back of the rat was fixed and blood was collected just before the administration, and at predetermined intervals after the administration, from the neck vein. The amount of blood collected each time was 0.3 ml. The sampled blood was subjected to centrifugal separation at 3500 rpm for 20 minutes to separate serum and the calcium content in the separated serum was measured by TBA-380 (supplied by Toshiba) using a Wako calcium-measuring kit (o-cpc method), and the ratio of reduction of the calcium concentration in the serum was determined.

[1] = concentration 830 ng/ml, 0 hour (just before administration)
[2] = concentration 830 ng/ml, 1 hour
[3] = concentration 830 ng/ml, 2 hours
[4] = concentration 830 ng/ml, 4 hours
[5] = concentration 830 ng/ml, 6 hours
[6] = concentration 83 ng/ml, 0 hour (just before administration)
[7] = concentration 83 ng/ml, 2 hours
[8] = concentration 83 ng/ml, 4 hours
[9] = concentration 83 ng/ml, 6 hours

How did the “Serum calcium level as percent of pre-dose baseline” value (“Serum calcium level as percent” for short) [1] turn out when CC[C@H](C)[C@H](NC(=O)[C@H](C)NC(=O)[C@@H](NC(=O)[C@H](CCC(N)=O)NC(=O)[C@@H]1CCCN1C(=O)[C@H](Cc1ccc(O)cc1)NC(=O)[C@@H](NC(=O)[C@H](CCC(N)=O)NC(=O)CNC(=O)[C@H](CCCCN)NC(=O)[C@H](Cc1c[nH]cn1)NC(=O)[C@H](CC(C)C)NC(=O)[C@H](CCC(=O)O)NC(=O)[C@H](CCC(N)=O)NC(=O)[C@H](CO)NC(=O)[C@H](CC(C)C)NC(=O)[C@H](CCCCN)NC(=O)CNC(=O)[C@H](CC(C)C)NC(=O)[C@H](CCSC)NC(=O)[C@@H]1CSSC[C@H](N)C(=O)NCC(=O)N[C@@H](CC(N)=O)C(=O)N[C@@H](CC(C)C)C(=O)N[C@@H](CO)C(=O)N[C@@H]([C@@H](C)O)C(=O)N1)[C@@H](C)O)[C@@H](C)O)C(=O)NCC(=O)N[C@@H](CO)C(=O)NCC(=O)N[C@H](C(=O)N1CCC[C@H]1C(N)=O)[C@@H](C)O [Peptide No. 8] (H-CGNLSTCMLGKLSQELHKGQTYPQTAIGSGTP-NH2; disulfide 1-7) was run?
The value was 100.0%.

And the “Serum calcium level as percent” value [2]?
The value was 76.6%.

What about the “Serum calcium level as percent” value [3] of the same molecule?
The value was 78.2%.

And the “Serum calcium level as percent” value [4]?
The value was 99.7%.

And the “Serum calcium level as percent” value [5]?
The value was 96.3%.

For CC[C@H](C)[C@H](NC(=O)[C@H](C)NC(=O)[C@@H](NC(=O)[C@H](CCC(N)=O)NC(=O)[C@@H]1CCCN1C(=O)[C@H](Cc1ccc(O)cc1)NC(=O)[C@@H](NC(=O)[C@H](CCC(N)=O)NC(=O)[C@H](CC(C)C)NC(=O)[C@H](CCCCN)NC(=O)[C@H](Cc1c[nH]cn1)NC(=O)[C@H](CC(C)C)NC(=O)[C@H](CCC(=O)O)NC(=O)[C@H](CCC(N)=O)NC(=O)[C@H](CO)NC(=O)[C@H](CC(C)C)NC(=O)[C@H](CCCCN)NC(=O)CNC(=O)[C@H](CC(C)C)NC(=O)CNC(=O)[C@@H]1CSSC[C@H](N)C(=O)NCC(=O)N[C@@H](CC(N)=O)C(=O)N[C@@H](CC(C)C)C(=O)N[C@@H](CO)C(=O)N[C@@H]([C@@H](C)O)C(=O)N1)[C@@H](C)O)[C@@H](C)O)C(=O)NCC(=O)N[C@H](C(=O)NCC(=O)N[C@@H](C)C(=O)N1CCC[C@H]1C(N)=O)C(C)C [Peptide No. 9] (H-CGNLSTCGLGKLSQELHKLQTYPQTAIGVGAP-NH2; disulfide 1-7), which “Serum calcium level as percent” value [6] is on record?
Its value is 100.0%.

What about the “Serum calcium level as percent” value (concentration 83 ng/ml, 1 hour) of the same molecule?
The value was 81.0%.

What about the “Serum calcium level as percent” value [7] of the same molecule?
The value was 87.5%.

What about the “Serum calcium level as percent” value [8] of the same molecule?
The value was 84.0%.

What about the “Serum calcium level as percent” value [9] of the same molecule?
The value was 83.2%.

What about the “Serum calcium level as percent” value [1] of the same molecule?
Its value is 100.0%.

And the “Serum calcium level as percent” value [2]?
Its value is 72.8%.

What about the “Serum calcium level as percent” value [3] of the same molecule?
Its value is 78.4%.

And the “Serum calcium level as percent” value [4]?
Its value is 86.8%.

And the “Serum calcium level as percent” value [5]?
The value was 82.4%.

What does the source list for CC[C@H](C)[C@H](NC(=O)[C@H](C)NC(=O)[C@@H](NC(=O)[C@H](CCC(N)=O)NC(=O)[C@@H]1CCCN1C(=O)[C@H](Cc1ccc(O)cc1)NC(=O)[C@@H](NC(=O)[C@H](CCC(N)=O)NC(=O)[C@H](CC(C)C)NC(=O)[C@H](CCCCN)NC(=O)[C@H](Cc1c[nH]cn1)NC(=O)[C@H](CC(C)C)NC(=O)[C@H](CCC(=O)O)NC(=O)[C@H](CCC(N)=O)NC(=O)[C@H](CO)NC(=O)[C@H](CC(C)C)NC(=O)[C@H](CCCCN)NC(=O)CNC(=O)[C@H](CC(C)C)NC(=O)[C@H](C)NC(=O)[C@@H]1CSSC[C@H](N)C(=O)NCC(=O)N[C@@H](CC(N)=O)C(=O)N[C@@H](CC(C)C)C(=O)N[C@@H](CO)C(=O)N[C@@H]([C@@H](C)O)C(=O)N1)[C@@H](C)O)[C@@H](C)O)C(=O)NCC(=O)N[C@H](C(=O)NCC(=O)N[C@@H](C)C(=O)N1CCC[C@H]1C(N)=O)C(C)C [Peptide No. 10] (H-CGNLSTCALGKLSQELHKLQTYPQTAIGVGAP-NH2; disulfide 1-7)?
Serum calcium level as percent of pre-dose baseline [6]: 100.0%; Serum calcium level as percent of pre-dose baseline (concentration 83 ng/ml, 1 hour): 68.7%; Serum calcium level as percent of pre-dose baseline [7]: 77.9%; Serum calcium level as percent of pre-dose baseline [8]: 90.6%; Serum calcium level as percent of pre-dose baseline [9]: 81.6%; Serum calcium level as percent of pre-dose baseline [1]: 100.0%; Serum calcium level as percent of pre-dose baseline [2]: 70.2%; Serum calcium level as percent of pre-dose baseline [3]: 65.4%; Serum calcium level as percent of pre-dose baseline [4]: 76.1%; Serum calcium level as percent of pre-dose baseline [5]: 84.2%

With CC[C@H](C)[C@H](NC(=O)[C@H](C)NC(=O)[C@@H](NC(=O)[C@H](CCC(N)=O)NC(=O)[C@@H]1CCCN1C(=O)[C@H](Cc1ccc(O)cc1)NC(=O)[C@@H](NC(=O)[C@H](CCC(N)=O)NC(=O)[C@H](CC(C)C)NC(=O)[C@H](CCCCN)NC(=O)[C@H](Cc1c[nH]cn1)NC(=O)[C@H](CC(C)C)NC(=O)[C@H](CCC(=O)O)NC(=O)[C@H](CCC(N)=O)NC(=O)[C@H](CO)NC(=O)[C@H](CC(C)C)NC(=O)[C@H](CCCCN)NC(=O)CNC(=O)[C@H](CC(C)C)NC(=O)[C@@H](NC(=O)[C@@H]1CSSC[C@H](N)C(=O)NCC(=O)N[C@@H](CC(N)=O)C(=O)N[C@@H](CC(C)C)C(=O)N[C@@H](CO)C(=O)N[C@@H]([C@@H](C)O)C(=O)N1)C(C)C)[C@@H](C)O)[C@@H](C)O)C(=O)NCC(=O)N[C@H](C(=O)NCC(=O)N[C@@H](C)C(=O)N1CCC[C@H]1C(N)=O)C(C)C [Peptide No. 11] (H-CGNLSTCVLGKLSQELHKLQTYPQTAIGVGAP-NH2; disulfide 1-7) as the molecule, how does the “Serum calcium level as percent” value [6] read?
The value was 100.0%.

And the “Serum calcium level as percent” value (concentration 83 ng/ml, 1 hour)?
Its value is 69.7%.

And the “Serum calcium level as percent” value [7]?
Its value is 82.8%.

And the “Serum calcium level as percent” value [8]?
Its value is 83.9%.

And the “Serum calcium level as percent” value [9]?
The value was 81.0%.

What about the “Serum calcium level as percent” value [1] of the same molecule?
The value was 100.0%.

What about the “Serum calcium level as percent” value [2] of the same molecule?
Its value is 69.1%.

And the “Serum calcium level as percent” value [3]?
Its value is 62.7%.

What about the “Serum calcium level as percent” value [4] of the same molecule?
Its value is 77.2%.

And the “Serum calcium level as percent” value [5]?
The value was 86.2%.

What does the source list for CC[C@H](C)[C@H](NC(=O)[C@H](C)NC(=O)[C@@H](NC(=O)[C@H](CCC(N)=O)NC(=O)[C@@H]1CCCN1C(=O)[C@H](Cc1ccc(O)cc1)NC(=O)[C@@H](NC(=O)[C@H](CCC(N)=O)NC(=O)[C@H](CC(C)C)NC(=O)[C@H](CCCCN)NC(=O)[C@H](Cc1c[nH]cn1)NC(=O)[C@H](CC(C)C)NC(=O)[C@H](CCC(=O)O)NC(=O)[C@H](CCC(N)=O)NC(=O)[C@H](CO)NC(=O)[C@H](CC(C)C)NC(=O)[C@H](CCCCN)NC(=O)CNC(=O)[C@H](CC(C)C)NC(=O)[C@@H]1CCCN1C(=O)[C@@H]1CSSC[C@H](N)C(=O)NCC(=O)N[C@@H](CC(N)=O)C(=O)N[C@@H](CC(C)C)C(=O)N[C@@H](CO)C(=O)N[C@@H]([C@@H](C)O)C(=O)N1)[C@@H](C)O)[C@@H](C)O)C(=O)NCC(=O)N[C@H](C(=O)NCC(=O)N[C@@H](C)C(=O)N1CCC[C@H]1C(N)=O)C(C)C [Peptide No. 12] (H-CGNLSTCPLGKLSQELHKLQTYPQTAIGVGAP-NH2; disulfide 1-7)?
Serum calcium level as percent of pre-dose baseline [6]: 100.0%; Serum calcium level as percent of pre-dose baseline (concentration 83 ng/ml, 1 hour): 88.0%; Serum calcium level as percent of pre-dose baseline [7]: 92.4%; Serum calcium level as percent of pre-dose baseline [8]: 83.4%; Serum calcium level as percent of pre-dose baseline [9]: 84.0%; Serum calcium level as percent of pre-dose baseline [1]: 109.0%; Serum calcium level as percent of pre-dose baseline [2]: 77.0%; Serum calcium level as percent of pre-dose baseline [3]: 86.8%; Serum calcium level as percent of pre-dose baseline [4]: 85.8%; Serum calcium level as percent of pre-dose baseline [5]: 88.0%
